Patent US6376426B1, “Herbicidal 3-(heterocycl-1-yl)-uracils” (BASF Aktiengesellschaft, priority 1999, dated 2002)

Legend:
Assay type in all cases: in vivo
[1] = tested on: Zea mays; experiment: Pre-emergence herbicidal test, ZEAMX; set-up: key to herbicidal effect (0-9 scale) ZEAMX / herbicidal rating ZEAMX: A rating 0 indicates growth as untreated control; a rating 9 indicates death; conditions: for herbicidal rating ZEAMX: PRE, 0-9 scale, 21 days after spraying
Method: (§1) To evaluate their herbicidal activity, compounds according to the invention are tested using a representative range of plants:
(§2) The pre-emergence tests involve spraying a liquid formulation of the compound onto the soil in which the seeds of the plant species mentioned above has recently been sown.
(§3) The soil used in the tests is a prepared horticultural loam. The formulations used in the tests are prepared from solutions of the test compounds in acetone containing 0.4% by weight of an alkylphenol/ethylene oxide condensate available under the trade mark TRITON X-155. […] In these tests untreated sown soil are used as controls.
(§4) The herbicidal effects of the test compounds are assessed visually twenty-one days after spraying the foliage and the soil and are recorded on a 0-9 scale. A rating 0 indicates growth as untreated control, a rating 9 indicates death. An increase of 1 unit on the linear scale approximates to a 10% increase in the level of effect.

[2] = tested on: Glycine max; experiment: Pre-emergence herbicidal test, GLXMA; set-up: key to herbicidal effect (0-9 scale) GLXMA / herbicidal rating GLXMA: A rating 0 indicates growth as untreated control; a rating 9 indicates death; conditions: for herbicidal rating GLXMA: PRE, 0-9 scale, 21 days after spraying
Method: as §1, §2, §3, §4

[3] = tested on: Setaria viridis; experiment: Pre-emergence herbicidal test, SETVI; set-up: key to herbicidal effect (0-9 scale) SETVI / herbicidal rating SETVI: A rating 0 indicates growth as untreated control; a rating 9 indicates death; conditions: PRE, 0-9 scale, 21 days after spraying
Method: as §1, §2, §3, §4

[4] = tested on: Echinochloa crus-galli; experiment: Pre-emergence herbicidal test, ECHCG; set-up: key: A rating 0 indicates growth as untreated control; a rating 9 indicates death; conditions: 0-9 scale, 21 days after spraying
Method: as §1, §2, §3, §4

[5] = tested on: Alopecurus myosuroides; experiment: Pre-emergence herbicidal test, ALOMY; set-up: key to herbicidal effect (0-9 scale) ALOMY / herbicidal rating ALOMY: A rating 0 indicates growth as untreated control; a rating 9 indicates death; conditions: for herbicidal rating ALOMY: PRE, 0-9 scale, 21 days after spraying
Method: as §1, §2, §3, §4

[6] = tested on: Ipomoea hederacea; experiment: Pre-emergence herbicidal test, IPOHE; set-up: key: A rating 0 indicates growth as untreated control; a rating 9 indicates death; conditions: 0-9 scale, 21 days after spraying
Method: as §1, §2, §3, §4

[7] = tested on: Galium aparine; experiment: Pre-emergence herbicidal test, GALAP; set-up: key to herbicidal effect (0-9 scale) GALAP / herbicidal rating GALAP: A rating 0 indicates growth as untreated control; a rating 9 indicates death; conditions: PRE, 0-9 scale, 21 days after spraying
Method: as §1, §2, §3, §4

[8] = tested on: Abutilon theophrasti; experiment: Pre-emergence herbicidal test, ABUTH; set-up: key to herbicidal effect (0-9 scale) ABUTH / herbicidal rating ABUTH: A rating 0 indicates growth as untreated control; a rating 9 indicates death; conditions: PRE, 0-9 scale, 21 days after spraying
Method: as §1, §2, §3, §4

[9] = tested on: Stellaria media; experiment: Pre-emergence herbicidal test, STEME; set-up: key to herbicidal effect (0-9 scale) STEME / herbicidal rating STEME: A rating 0 indicates growth as untreated control; a rating 9 indicates death; conditions: PRE, 0-9 scale, 21 days after spraying
Method: as §1, §2, §3, §4

[10] = tested on: Matricaria inodora; experiment: Pre-emergence herbicidal test, MATIN; set-up: key to herbicidal effect (0-9 scale) MATIN / herbicidal rating MATIN: A rating 0 indicates growth as untreated control; a rating 9 indicates death; conditions: PRE, 0-9 scale, 21 days after spraying
Method: as §1, §2, §3, §4

[11] = tested on: Zea mays; experiment: Post-emergence herbicidal test, ZEAMX; set-up: key: A rating 0 indicates growth as untreated control; a rating 9 indicates death; conditions: 0-9 scale, 21 days after spraying
Method: as §1
(§5) […] After spraying, the plants are placed on greenhouse benches and are cared for in the usual manner, commensurate with conventional greenhouse practices.
as §4

[12] = tested on: Glycine max; experiment: Post-emergence herbicidal test, GLXMA; set-up: key: A rating 0 indicates growth as untreated control; a rating 9 indicates death; conditions: 0-9 scale, 21 days after spraying
Method: as §1, §5, §4

[13] = tested on: Setaria viridis; experiment: Post-emergence herbicidal test, SETVI; set-up: key to herbicidal effect (0-9 scale) SETVI / herbicidal rating SETVI: A rating 0 indicates growth as untreated control; a rating 9 indicates death; conditions: POST, 0-9 scale, 21 days after spraying
Method: as §1, §5, §4

[14] = tested on: Echinochloa crus-galli; experiment: Post-emergence herbicidal test, ECHCG; set-up: key: A rating 0 indicates growth as untreated control; a rating 9 indicates death; conditions: 0-9 scale, 21 days after spraying
Method: as §1, §5, §4

[15] = tested on: Alopecurus myosuroides; experiment: Post-emergence herbicidal test, ALOMY; set-up: key: A rating 0 indicates growth as untreated control; a rating 9 indicates death; conditions: 0-9 scale, 21 days after spraying
Method: as §1, §5, §4

[16] = tested on: Ipomoea hederacea; experiment: Post-emergence herbicidal test, IPOHE; set-up: key to herbicidal effect (0-9 scale) IPOHE / herbicidal rating IPOHE: A rating 0 indicates growth as untreated control; a rating 9 indicates death; conditions: POST, 0-9 scale, 21 days after spraying
Method: as §1, §5, §4

[17] = tested on: Galium aparine; experiment: Post-emergence herbicidal test, GALAP; set-up: key to herbicidal effect (0-9 scale) GALAP / herbicidal rating GALAP: A rating 0 indicates growth as untreated control; a rating 9 indicates death; conditions: POST, 0-9 scale, 21 days after spraying
Method: as §1, §5, §4

[18] = tested on: Abutilon theophrasti; experiment: Post-emergence herbicidal test, ABUTH; set-up: key to herbicidal effect (0-9 scale) ABUTH / herbicidal rating ABUTH: A rating 0 indicates growth as untreated control; a rating 9 indicates death; conditions: POST, 0-9 scale, 21 days after spraying
Method: as §1, §5, §4

[19] = tested on: Stellaria media; experiment: Post-emergence herbicidal test, STEME; set-up: key to herbicidal effect (0-9 scale) STEME / herbicidal rating STEME: A rating 0 indicates growth as untreated control; a rating 9 indicates death; conditions: POST, 0-9 scale, 21 days after spraying
Method: as §1, §5, §4

[20] = tested on: Matricaria inodora; experiment: Post-emergence herbicidal test, MATIN; set-up: key to herbicidal effect (0-9 scale) MATIN / herbicidal rating MATIN: A rating 0 indicates growth as untreated control; a rating 9 indicates death; conditions: POST, 0-9 scale, 21 days after spraying
Method: as §1, §5, §4

[21] = tested on: representative range of plants; experiment: Pre-emergence herbicidal test, summary over the plants tested; conditions: 100 g/ha
Method: as §1, §2, §3, §4

[22] = tested on: representative range of plants; experiment: Post-emergence herbicidal test, summary over the plants tested
Method: as §1, §5, §4

[23] = tested on: representative range of plants; experiment: Herbicidal activity, pre- and post-emergence, overall; conditions: both in pre- and post-emergence
Method: as §1, §2
The soil used in the tests is a prepared horticultural loam. The formulations used in the tests are prepared from solutions of the test compounds in acetone containing 0.4% by weight of an alkylphenol/ethylene oxide condensate available under the trade mark TRITON X-155. These acetone solutions are diluted with water and the resulting formulations applied at dosage levels corresponding to 1000 g and 250 g/ha of active material per hectare in a volume equivalent to 900 litres per hectare. In these tests untreated sown soil are used as controls.
These acetone solutions are diluted with water and the resulting formulations applied at dosage levels equivalent to about 1000, 800, 400, 250 or 100 g/ha per hectare of test compound per pot. After spraying, the plants are placed on greenhouse benches and are cared for in the usual manner, commensurate with conventional greenhouse practices.
as §4

SMILES: Cn1c(C(F)(F)F)cc(=O)n(-n2ncc3c(Cl)cccc32)c1=O [Example 168, 3-(4-Chloro-1-indazol-1-yl)-1-methyl-6trifluoromethylpyrimidine-2,4-dione]
- herbicidal rating ZEAMX ([1]; 12.5 g/ha): 0
- herbicidal rating ZEAMX ([1]; 25 g/ha): 0
- herbicidal rating ZEAMX ([1]; 100 g/ha): 1
- selectivity in maize ([1]; pre-emergence, 100 g/ha): Surprisingly good selectivity
- herbicidal rating GLXMA ([2]; 12.5 g/ha): 0
- herbicidal rating GLXMA ([2]; 25 g/ha): 0
- herbicidal rating GLXMA ([2]; 100 g/ha): 0
- selectivity in soy beans ([2]; pre-emergence, 100 g/ha): Surprisingly good selectivity
- herbicidal rating SETVI ([3]; 12.5 g/ha): 2
- herbicidal rating SETVI ([3]; 25 g/ha): 5
- herbicidal rating SETVI ([3]; 100 g/ha): 9
- herbicidal rating ECHCG ([4]; 12.5 g/ha): 0
- herbicidal rating ECHCG ([4]; 25 g/ha): 1
- herbicidal rating ECHCG ([4]; 100 g/ha): 6
- herbicidal rating ALOMY ([5]; 12.5 g/ha): 0
- herbicidal rating ALOMY ([5]; 25 g/ha): 0
- herbicidal rating ALOMY ([5]; 100 g/ha): 2
- control of Alopecurus ([5]; pre-emergence, 100 g/ha): well controlled
- herbicidal rating IPOHE ([6]; 12.5 g/ha): 0
- herbicidal rating IPOHE ([6]; 25 g/ha): 3
- herbicidal rating IPOHE ([6]; 100 g/ha): 7
- herbicidal rating GALAP ([7]; 12.5 g/ha): 3
- herbicidal rating GALAP ([7]; 25 g/ha): 6
- herbicidal rating GALAP ([7]; 100 g/ha): 9
- herbicidal rating ABUTH ([8]; 12.5 g/ha): 9
- herbicidal rating ABUTH ([8]; 25 g/ha): 9
- herbicidal rating ABUTH ([8]; 100 g/ha): 9
- herbicidal rating STEME ([9]; 12.5 g/ha): 1
- herbicidal rating STEME ([9]; 25 g/ha): 3
- herbicidal rating STEME ([9]; 100 g/ha): 9
- herbicidal rating MATIN ([10]; 12.5 g/ha): 8
- herbicidal rating MATIN ([10]; 25 g/ha): 8
- herbicidal rating MATIN ([10]; 100 g/ha): 9
- herbicidal rating ZEAMX ([11]; 12.5 g/ha): 0
- herbicidal rating ZEAMX ([11]; 25 g/ha): 1
- herbicidal rating ZEAMX ([11]; 100 g/ha): 3
- herbicidal rating GLXMA ([12]; 12.5 g/ha): 5
- herbicidal rating GLXMA ([12]; 25 g/ha): 6
- herbicidal rating GLXMA ([12]; 100 g/ha): 9
- herbicidal rating SETVI ([13]; 12.5 g/ha): 6
- herbicidal rating SETVI ([13]; 25 g/ha): 7
- herbicidal rating SETVI ([13]; 100 g/ha): 9
- herbicidal rating ECHCG ([14]; 12.5 g/ha): 0
- herbicidal rating ECHCG ([14]; 25 g/ha): 2
- herbicidal rating ECHCG ([14]; 100 g/ha): 8
- herbicidal rating ALOMY ([15]; 12.5 g/ha): 0
- herbicidal rating ALOMY ([15]; 25 g/ha): 1
- herbicidal rating ALOMY ([15]; 100 g/ha): 3
- herbicidal rating IPOHE ([16]; 12.5 g/ha): 9
- herbicidal rating IPOHE ([16]; 25 g/ha): 9
- herbicidal rating IPOHE ([16]; 100 g/ha): 9
- herbicidal rating GALAP ([17]; 12.5 g/ha): 9
- herbicidal rating GALAP ([17]; 25 g/ha): 9
- herbicidal rating GALAP ([17]; 100 g/ha): 9
- herbicidal rating ABUTH ([18]; 12.5 g/ha): 9
- herbicidal rating ABUTH ([18]; 25 g/ha): 9
- herbicidal rating ABUTH ([18]; 100 g/ha): 9
- herbicidal rating STEME ([19]; 12.5 g/ha): 7
- herbicidal rating STEME ([19]; 25 g/ha): 7
- herbicidal rating STEME ([19]; 100 g/ha): 9
- herbicidal rating MATIN ([20]; 12.5 g/ha): 8
- herbicidal rating MATIN ([20]; 25 g/ha): 9
- herbicidal rating MATIN ([20]; 100 g/ha): 9
- control of the weeds [21]: four out of five broadleaf weeds were well controlled
- control of broadleaf weeds ([22]; 12.5 g/ha): all broadleaf weeds were still well controlled
- control of the weeds ([22]; 100 g/ha): good cross spectrum control on both broadleaf weeds and grasses except Alopecurus and Echinochloa
- herbicidal performance [23]: good performance
